The values below are quoted from earlier work in patent publication US20260373165A1, “PHARMACEUTICAL COMBINATIONS AND COMPOSITIONS, AND METHODS OF USE THEREOF” (SHENZHEN HIGHTIDE BIOPHARMACEUTICAL LTD., priority 2022, published 2026).

For this data set the following is noted: after 52 weeks of treatment, lower dose of semaglutide; cited from earlier work.

SMILES strings stand for the structures.

Turning to `Cc1ccc([C@@H]2O[C@H](CO)[C@@H](O)[C@H](O)[C@H]2O)cc1Cc1ccc(-c2ccc(F)cc2)s1` [cangliflozin, canagliflozin], the “average decrease in total fat mass” value is listed as 7.8% and the “average decrease in total muscle mass” value is 2.9%.
